US20260027380A1, “TECHNIQUES FOR MAGNETIC NANOCLUSTER-BASED COMBINATION THERAPY” (William Marsh Rice University, priority 2022, published 2026)

Tests used:
MC-38 cells = experiment: Detection of DNA damage (γ-H2AX staining); assay type: cell-based, murine; conditions: without AMF
Protocol: Hyperthermia treatment may induce lipid peroxidation, DNA damage, protein denaturation, and cell organelle disruption. In addition, carbon-centered free radicals generated from AAPH are highly reactive and can damage lipid, DNA, protein, and other biomolecules, leading to cell death. Thus, to understand the cell-killing mechanisms of IONC-AAPH under AMF, the effects of IONC-AAPH on various cellular components, including DNA, F-actin, mitochondria, gluthathione (GSH), and lipids, were evaluated. γ-H2AX is a sensitive marker of DNA damage and has been extensively used in research and clinical studies. It forms foci around the site of DNA double-strand break (DSB).
FIG. 7 depicts the quantification of γ-H2AX expression based on fluorescence intensity.
Detection of DNA damage: The DNA damage induced by IONC-AAPH treatment was detected by γ-H2AX staining. MC-38 cells were seeded in 4-compartment cell culture dishes and cultured overnight. Then the cells were treated with 300 μg Fe/mL of IONC-AAPH or IONC at 37° C. or under AMF for 90 min. Four hours after the treatment, the cells were fixed with 4% paraformaldehyde for 20 min, permeabilized with 0.2% Triton X-100 for 20 min and blocked with 3% bovine serum albumin (BSA) for 30 min at room temperature. […] The cells were imaged with a Nikon A1-Rsi confocal microscope and the fluorescence intensity of γ-H2AX was analyzed with ImageJ software.

[1] = tested on: bone marrow-derived dendritic cells (BMDCs); experiment: Dendritic cell maturation, coculture with treated MC-38 cells; assay type: cell-based, C57BL/6N mice; conditions: without AMF
Protocol: Dendritic cells (DCs) are a key type of antigen-presenting cells that play critical roles in initiating and regulating antitumor immune response. To determine if the immunogenic cell death induced by magnetotherapy can activate dendritic cells, bone marrow-derived dendritic cells (BMDCs) were cocultured with IONC-AAPH-treated MC-38 cells, together with the medium containing DAMPs, in a transwell system for 24 h. The maturation of dendritic cells was estimated as the percentage of CD80+CD86+ cells in CD11c+ cells. […] The percentage of mature DCs in IONC and IONC-AAPH groups was 2.1-fold of the blank.
Determination of Dendritic Cell Maturation: The bone marrow-derived dendritic cells (BMDCs) were prepared from the bone marrow of 8-week old C57BL/6N mice according to an established protocol. To determine the stimulatory effect on BMDCs, IONC-AAPH-treated MC-38 cells (together with the medium containing DAMPs) were cocultured with BMDCs for 24 h in a transwell system (pore size=3 μm). BMDCs only (without coculture) were included as the blank groups. The BMDCs were collected, blocked with CD16/CD32 antibody, and stained with PECD11c, FITC-CD80, and APC-CD86. The data were acquired on MA900 Multi-Application Cell Sorter (Sony) and analyzed using FlowJo software (Tree Star).

subcutaneous MC-38 tumor = experiment: Tumor killing effect in vivo, subcutaneous MC-38 mouse tumor model; parameters: species or system C57BL/6N mice
Protocol: The antitumor activity of IONC-AAPH in vivo was evaluated with a subcutaneous MC-38 mouse tumor model. The subcutaneous tumor was induced by inoculating MC-38 cells into the right flank of respective C57BL/6N mice. The mice were randomly divided into 6 groups (n=3): (i) saline, (ii) AAPH, (iii) IONC, (iv) IONC-AAPH, (v) IONC+AMF, and (vi) IONC-AAPH+AMF. When the tumor volume reached 150-200 mm^3, the mice were intratumorally injected with saline, AAPH (2 mM), IONC (5 mg Fe/mL), and IONC-AAPH (5 mg Fe/mL), respectively. After injection the mice in IONC+AMF and IONC-AAPH+AMF groups were subjected to AMF for 1 h. The temperature of the tumors injected with IONC or IONC-AAPH increased rapidly and reached above 45° C. within 5 min, as measured by an infrared thermal camera.
After applying AMF, the temperature in the tumor was much higher than in other parts of the body. […]
Tumor killing effect of IONC-AAPH in vivo: All animal work was approved by the Institutional Animal Care and Use Committee (IACUC) of Rice University. […] The direct tumor killing effect of IONC-AAPH treatment was evaluated with subcutaneous tumor-bearing mice. […] The temperature in the tumor was measured using a high-resolution infrared (IR) camera (E95, Teledyne FLIR). The tumor size was measured daily with a digital caliper, and the tumor volume was calculated as follow: volume=length×width^2/2. […]

In the case of `CC(C)(N=NC(C)(C)C(=N)N)C(=N)N.Cl.Cl` [AAPH, 2,2′-azobis(2-amidinopropane) dihydrochloride], the “γ-H2AX foci (DNA damage)” value (MC-38 cells) is reported as “low numbers of γ-H2AX foci”, the “effect on DC maturation” value [1] is reported as “did not show a noticeable effect” and the “tumor tissue damage (H&E, TUNEL)” value (subcutaneous MC-38 tumor; without AMF) is reported as “no tumor tissue damage”. The tumor weight (subcutaneous MC-38 tumor; without applying AMF) was “only slightly reduced the tumor weight”.
